Results as given in patent publication US4994376A, “Detection of bacteroides gingivalis” (priority 1987, dated 1991).
Where two headings read alike, the source gives them in different places. Peptide text beside a SMILES is read from it. * marks the point of attachment. βNA = c1ccc2cc(N*)ccc2c1

What was measured:
Format in all cases: biochemical
[1] = test system: L. fermentum; test: Aminopeptidase activity on β-naphthylamide substrates; details: strain ATCC 11581; β-naphthylamine liberated after 60 minutes, 37° C.
Outline: (§1)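 Enzyme plus N-CBz-glycyl-glycyl-L-arginine-β-naphthylamide incubated 1 h at 37° C. Fast Garnet GBC (0.5 mg/ml) in 1M acetate pH 4.2 with 10% Tween 20 added; stood 15 min at RT. A525 read; activity given as nmol β-naphthylamine liberated in 60 min.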

[2] = test system: F. periodonticum; test: as above; details: strain EK1-15; β-naphthylamine liberated after 60 minutes, 37° C.
Outline: as §1

[3] = test system: Haemophilus aphrophilus; test: as above; details: β-naphthylamine liberated after 60 minutes, 37° C.
Outline: as §1

[4] = test system: S. salivarius; test: as above; details: β-naphthylamine liberated after 60 minutes, 37° C.
Outline: as §1

[5] = test system: A. equuli; test: as above; details: strain ATCC 19392; β-naphthylamine liberated after 60 minutes, 37° C.
Outline: as §1

[6] = test system: A. suis; test: as above; details: strain ATCC 15557; β-naphthylamine liberated after 60 minutes, 37° C.
Outline: as §1

[7] = test system: Lactobacillus casei; test: as above; details: β-naphthylamine liberated after 60 minutes, 37° C.
Outline: as §1

[8] = test system: B. intermedius; test: as above; details: strain ATCC 25611; β-naphthylamine liberated after 60 minutes, 37° C.
Outline: (§2)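 Hydrolysis of N-CBz-glycyl-glycyl-L-arginine-β-naphthylamide over 1 h at 37 °C, then colour developed with Fast Garnet GBC (0.5 mg/ml) in 1M acetate pH 4.2 with 10% Tween 20 for 15 min at room temperature. Absorbance read at 525 nm against an enzyme-free control; activity given as nmol β-naphthylamine released in 60 min.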

[9] = test system: B. corporis; test: as above; details: strain ATCC 33547; β-naphthylamine liberated after 60 minutes, 37° C.
Outline: as §2

[10] = test system: C. sputigena; test: as above; details: strain ATCC 33123; β-naphthylamine liberated after 60 minutes, 37° C.
Outline: as §2

[11] = test system: B. melaninogenicus; test: as above; details: strain ATCC 25845; β-naphthylamine liberated after 60 minutes, 37° C.
Outline: as §2

[12] = test system: B. denticola; test: as above; details: strain ATCC 33185; β-naphthylamine liberated after 60 minutes, 37° C.
Outline: as §2

[13] = test system: B. asaccharolyticus; details: β-naphthylamine liberated after 60 minutes, 37° C.
Outline: as §2

[14] = test system: Capnocytophaga sp.; details: strain JD3-5; β-naphthylamine liberated after 60 minutes, 37° C.
Outline: as §2

[15] = test system: B. levii; details: β-naphthylamine liberated after 60 minutes, 37° C.
Outline: as §2

[16] = test system: B. mel. ss. intermedius; details: β-naphthylamine liberated after 60 minutes, 37° C.
Outline: as §2

[17] = test system: B. loescheii; details: β-naphthylamine liberated after 60 minutes, 37° C.
Outline: as §2

[18] = test system: Bacteroides gingivalis; details: β-naphthylamine liberated after 60 minutes, 37° C.
Outline: as §2

[19] = test system: C. ochracea; details: strain ATCC 27872; β-naphthylamine liberated after 60 minutes, 37° C.
Outline: as §2

[20] = test system: Capnocytophaga gingivalis; details: strain ATCC 33624; β-naphthylamine liberated after 60 minutes, 37° C.
Outline: as §2

[21] = test system: S. sanguis; details: β-naphthylamine liberated after 60 minutes, 37° C.
Outline: as §1

[22] = test system: Veillonella sp.; details: strain SE1M2; β-naphthylamine liberated after 60 minutes, 37° C.
Outline: as §1

[23] = test system: A. viscosus; details: β-naphthylamine liberated after 60 minutes, 37° C.
Outline: as §1

[24] = test system: S. mutans; details: strain ATCC 25175; β-naphthylamine liberated after 60 minutes, 37° C.
Outline: as §1

[25] = test system: Actinobacillus actinomycetemcomitans; details: β-naphthylamine liberated after 60 minutes, 37° C.
Outline: as §1

[26] = test system: "Anaerobic vibrio"; details: strain SN2T2; β-naphthylamine liberated after 60 minutes, 37° C.
Outline: as §1

[27] = test system: Streptococcus mitis; details: β-naphthylamine liberated after 60 minutes, 37° C.
Outline: as §1

[28] = test system: Actinomyces israeli; details: β-naphthylamine liberated after 60 minutes, 37° C.
Outline: as §1

## C[C@H](N)C(=O)N[C@@H](C)C(=O)N[C@@H](Cc1ccccc1)C(=O)Nc1ccc2ccccc2c1 [Ala-Ala-Phe] (H-Ala-Ala-Phe-βNA)
[1]
  Aminopeptidase activity: 5 nmol
[2]
  Aminopeptidase activity: 1 nmol
[3]; strain ATCC 13252
  Aminopeptidase activity: 0 nmol
[3]; strain ATCC 19415
  Aminopeptidase activity: 0 nmol
[3]; strain NCTC 5908
  Aminopeptidase activity: 0 nmol
[4]; strain ATCC 9759
  Aminopeptidase activity: 0 nmol
[4]; strain ATCC 25975
  Aminopeptidase activity: 0 nmol
[5]
  Aminopeptidase activity: 0 nmol
[6]
  Aminopeptidase activity: 0 nmol
[7]; strain ATCC 7469
  Aminopeptidase activity: 0 nmol
[7]; strain ATCC 11578
  Aminopeptidase activity: 3 nmol
[7]; strain ATCC 11582
  Aminopeptidase activity: 3 nmol
[8]
  Aminopeptidase activity: 0 nmol
[9]
  Aminopeptidase activity: 0 nmol
[10]
  Aminopeptidase activity: 44 nmol
[11]
  Aminopeptidase activity: 1 nmol
[12]
  Aminopeptidase activity: 2 nmol
[13]; strain 536B
  Aminopeptidase activity: 0 nmol
[13]; strain ATCC 18569
  Aminopeptidase activity: 0 nmol
[13]; strain ATCC 25260
  Aminopeptidase activity: 0 nmol
[13]; strain ATCC 27067
  Aminopeptidase activity: 0 nmol
[13]; strain NY446
  Aminopeptidase activity: 0 nmol
[14]
  Aminopeptidase activity: 0 nmol
[15]; strain 18-1-5
  Aminopeptidase activity: 0 nmol
[15]; strain 18-1-8
  Aminopeptidase activity: 0 nmol
[16]; strain ATCC 25261
  Aminopeptidase activity: 0 nmol
[16]; strain ATCC 33563
  Aminopeptidase activity: 0 nmol
[16]; strain NCTC 9336
  Aminopeptidase activity: 0 nmol
[17]; strain ATCC 15930
  Aminopeptidase activity: 1 nmol
[17]; strain VPI4196
  Aminopeptidase activity: 0 nmol
[18]; strain 9-14K-1
  Aminopeptidase activity: 0 nmol
[18]; strain 11-1-2
  Aminopeptidase activity: 0 nmol
[18]; strain 381
  Aminopeptidase activity: 0 nmol
[18]; strain 1021
  Aminopeptidase activity: 0 nmol
[18]; strain ATCC 33277
  Aminopeptidase activity: 1 nmol
[18]; strain FAYE 19m-1
  Aminopeptidase activity: 3 nmol
[19]
  Aminopeptidase activity: 82 nmol
[20]
  Aminopeptidase activity: 72 nmol
[21]; strain ATCC 10556
  Aminopeptidase activity: 2 nmol
[21]; strain ATCC 10557
  Aminopeptidase activity: 1 nmol
[22]
  Aminopeptidase activity: 0 nmol
[23]; strain ATCC 19246
  Aminopeptidase activity: 2 nmol
[23]; strain T14V
  Aminopeptidase activity: 4 nmol
[24]
  Aminopeptidase activity: 0 nmol
[25]; strain 67
  Aminopeptidase activity: 3 nmol
[25]; strain 75
  Aminopeptidase activity: 1 nmol
[25]; strain ATCC 29523
  Aminopeptidase activity: 0 nmol
[25]; strain NCTC 9709
  Aminopeptidase activity: 1 nmol
[25]; strain Y4
  Aminopeptidase activity: 0 nmol
[26]
  Aminopeptidase activity: 0 nmol
[27]; strain ATCC 9815
  Aminopeptidase activity: 3 nmol
[27]; strain ATCC 15909
  Aminopeptidase activity: 1 nmol
[27]; strain ATCC 15911
  Aminopeptidase activity: 0 nmol
[27]; strain ATCC 15912
  Aminopeptidase activity: 0 nmol
[28]; strain ATCC 12103
  Aminopeptidase activity: 3 nmol
[28]; strain DK2-3
  Aminopeptidase activity: 0 nmol
